In US12661410B2, “Compounds for targeted degradation of RET” (C4 Therapeutics, Inc., priority 2020, dated 2026):
Positions count from the first letter of the chain named. Read-outs that look alike come from different tables or passages of the source.

How the values were obtained:
RET(KD: 658-1114 G810R) = biological target: T1, RET(KD: 658-1114 G810R) (Homo sapiens, UniProt P07949, G810R); test: HiBiT-Degradation, RET G810R degradation assay (Nano-Glo HiBiT Lytic), 293T.165 cells; assay type: cell-based; conditions: for Emax / DC50: 6.0 hours
T1 construct: 658-1114; expressed in transfected cells; host or cells: 293T.165 (293T cells, generated in-house)
T1 sequence (P07949 658-1114 G810R): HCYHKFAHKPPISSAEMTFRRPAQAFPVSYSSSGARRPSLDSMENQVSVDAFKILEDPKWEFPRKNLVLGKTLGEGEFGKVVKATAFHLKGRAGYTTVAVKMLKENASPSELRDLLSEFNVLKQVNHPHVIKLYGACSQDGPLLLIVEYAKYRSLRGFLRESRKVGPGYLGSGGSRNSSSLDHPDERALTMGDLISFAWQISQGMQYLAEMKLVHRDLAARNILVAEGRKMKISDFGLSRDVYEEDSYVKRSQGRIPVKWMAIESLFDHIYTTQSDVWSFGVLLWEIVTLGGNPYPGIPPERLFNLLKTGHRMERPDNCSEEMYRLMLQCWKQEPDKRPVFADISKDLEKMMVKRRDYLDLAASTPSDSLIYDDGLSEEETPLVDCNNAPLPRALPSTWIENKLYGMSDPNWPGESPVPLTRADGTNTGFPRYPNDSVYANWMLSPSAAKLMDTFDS
How it was run: (§1)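 Cells were plated and dosed with an 11-point half-log series (highest 10 μM) in duplicate. After 6 hours they were lysed with HiBiT lytic detection reagent and luminescence measured. DC50 and percent remaining protein (Emax) came from the dose-response curves.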

RET (658-1114) = biological target: T2, RET (658-1114) (Homo sapiens, UniProt P07949); test: HiBiT-Degradation, RET wild-type degradation assay (Nano-Glo HiBiT Lytic), 293T.144 cells; assay type: cell-based; conditions: for DC50 / Emax: 6.0 hours
T2 construct: 658-1114; expressed in transfected cells; host or cells: 293T.144 (293T cells, generated in-house)
T2 sequence (P07949 658-1114): T1 sequence (P07949 658-1114 G810R) with R153G
How it was run: as §1

[1] = % remaining protein, read-out: 293T.165 RET(KD: 658-1114 G810R) 6.0 hours (Emax)
[2] = half-maximal degradation concentration, read-out: 293T.165 RET(KD: 658-1114 G810R) 6.0 hours (DC50)
[3] = HiBiT-Degradation, read-out: 293T.165 RET(KD: 658-1114 G810R) 6.0 hours (DC50)
[4] = HiBiT-Degradation, read-out: 293T.144 RET (658-1114) 6.0 hours (DC50)
[5] = HiBiT-Degradation, read-out: 293T.144 RET (658-1114) 6.0 hours (Emax)
[6] = % remaining protein, read-out: 293T.144 RET (658-1114) 6.0 hours (Emax)
[7] = half-maximal degradation concentration, read-out: 293T.144 RET (658-1114) 6.0 hours (DC50)
[8] = RET G810R, read-out: HiBiT-Degradation 293T.165 RET(KD: 658-1114 G810R) 6.0 hours (DC50)
[9] = RET G810R, read-out: HiBiT-Degradation 293T.165 RET(KD: 658-1114 G810R) 6.0 hours (Emax)
[10] = RET wild-type, read-out: HiBiT-Degradation 293T.144 RET (658-1114) 6.0 hours (DC50)
[11] = RET wild-type, read-out: HiBiT-Degradation 293T.144 RET (658-1114) 6.0 hours (Emax)

SMILES	Emax (RET(KD: 658-1114 G810R); [1]) [%]	DC50 (RET(KD: 658-1114 G810R); [2]) [nM]	293T.165 RET(KD: 658-1114 G810R) 6.0 hours (Emax) (RET(KD: 658-1114 G810R); HiBiT-Degradation)	293T.165 RET(KD: 658-1114 G810R) 6.0 hours (IP) [nM] (RET(KD: 658-1114 G810R); HiBiT-Degradation)	DC50 (RET(KD: 658-1114 G810R); [3]) [nM]	293T.144 RET (658-1114) 6.0 hours (IP) [nM] (RET (658-1114); HiBiT-Degradation)	DC50 (RET (658-1114); [4]) [nM]	Emax (RET (658-1114); [5]) [%]	293T.165 RET(KD: 658-1114 G810R) 6.0 hours (IP) [nM] (RET(KD: 658-1114 G810R))	293T.144 RET (658-1114) 6.0 hours (IP) [nM] (RET (658-1114))	Emax (RET (658-1114); [6]) [%]	DC50 (RET (658-1114); [7]) [nM]	HiBiT-Degradation 293T.165 RET(KD: 658-1114 G810R) 6.0 hours (IP) [nM] (RET(KD: 658-1114 G810R); RET G810R)	DC50 (RET(KD: 658-1114 G810R); [8]) [nM]	Emax (RET(KD: 658-1114 G810R); [9]) [%]	HiBiT-Degradation 293T.144 RET (658-1114) 6.0 hours (IP) [nM] (RET (658-1114); RET wild-type)	DC50 (RET (658-1114); [10]) [nM]	Emax (RET (658-1114); [11]) [%]
CCC1(C(=O)NC(C)C)CCN(c2ccc(-c3cc(-c4ccc(N5CCN(C(=O)CN6CCC(c7ccc8c(N9CCC(=O)NC9=O)nn(C)c8c7)CC6)CC5)cc4)cn4ncc(C#N)c34)cn2)CC1 [Compound 64, 1-[5-[3-cyano-6-[4-[4-[2-[4-[3-(2,4-dioxohexahydropyrimidin-1-yl)-1-methyl-indazol-6-yl]-1-piperidyl]acetyl]piperazin-1-yl]phenyl]pyrazolo[1,5-a]pyridin-4-yl]-2-pyridyl]-4-ethyl-N-isopropyl-piperidine-4-carboxamide]	< 30	< 100	++++ (< 30% = ++++)	++++ (< 50 nM = ++++)	< 100	++++ (< 50 nM = ++++)	< 50	< 30	–	–	–	–	–	–	–	–	–	–
COc1ccc(CN2C3COCC2CN(c2ccc(-c4nc(-c5cnn(C6CCC(N7CCC(c8ccc(NC9CCC(=O)NC9=O)cc8Cl)CC7)CC6)c5)cn5ncc(C#N)c45)cn2)C3)cn1 (stereo not shown) [Compound 206, 6-[1-[4-[4-[2-chloro-4-[(2,6-dioxo-3-piperidyl)amino]phenyl]-1-piperidyl]cyclohexyl]pyrazol-4-yl]-4-[6-[9-[(6-methoxy-3-pyridyl)methyl]-3-oxa-7,9-diazabicyclo[3.3.1]nonan-7-yl]-3-pyridyl]pyrazolo[1,5-a]pyrazine-3-carbonitrile]	< 30	< 100	–	–	–	–	–	–	++++ (<50 nM = ++++)	++++ (<50 nM = ++++)	< 30	< 50	–	–	–	–	–	–
CCC1(C(=O)NC(C)C)CCN(c2ncc(-c3nc(-c4cnn(C5CCN(C(=O)CC6(O)CCN(c7ccc(NC8CCC(=O)NC8=O)cc7Cl)CC6)CC5)c4)cn4ncc(C#N)c34)cc2F)CC1 (stereo not shown) [Compound 120, 1-[5-[6-[1-[1-[2-[1-[2-chloro-4-[(2,6-dioxo-3-piperidyl)amino]phenyl]-4-hydroxy-4-piperidyl]acetyl]-4-piperidyl]pyrazol-4-yl]-3-cyano-pyrazolo[1,5-a]pyrazin-4-yl]-3-fluoro-2-pyridyl]-4-ethyl-N-isopropyl-piperidine-4-carboxamide]	< 50	< 100	–	–	–	–	–	–	++++ (<50 nM = ++++)	++++ (<50 nM = ++++)	< 30	< 50	–	–	–	–	–	–
CCC1(C(=O)NC(C)C)CCN(c2ccc(-c3cc(-c4cnn(C5CC6(C5)CN(C5CCN(c7ccc(NC8CCC(=O)NC8=O)cc7F)CC5)C6)c4)cn4ncc(C#N)c34)cn2)CC1 (stereo not shown) [Compound 199, 1-(5-(3-cyano-6-(1-(2-(1-(4-((2,6-dioxopiperidin-3-yl)amino)-2-fluorophenyl)piperidin-4-yl)-2-azaspiro[3.3]heptan-6-yl)-1H-pyrazol-4-yl)pyrazolo[1,5-a]pyridin-4-yl)pyridin-2-yl)-4-ethyl-N-isopropylpiperidine-4-carboxamide]	< 30	< 50	–	–	–	–	–	–	+++ (<100 nM = +++)	++++ (<50 nM = ++++)	< 30	< 50	–	–	–	–	–	–

Now from value to compound:

Emax (RET(KD: 658-1114 G810R); [1]) [%]	DC50 (RET(KD: 658-1114 G810R); [2]) [nM]	293T.165 RET(KD: 658-1114 G810R) 6.0 hours (Emax) (RET(KD: 658-1114 G810R); HiBiT-Degradation)	293T.165 RET(KD: 658-1114 G810R) 6.0 hours (IP) [nM] (RET(KD: 658-1114 G810R); HiBiT-Degradation)	DC50 (RET(KD: 658-1114 G810R); [3]) [nM]	293T.144 RET (658-1114) 6.0 hours (IP) [nM] (RET (658-1114); HiBiT-Degradation)	DC50 (RET (658-1114); [4]) [nM]	Emax (RET (658-1114); [5]) [%]	293T.165 RET(KD: 658-1114 G810R) 6.0 hours (IP) [nM] (RET(KD: 658-1114 G810R))	293T.144 RET (658-1114) 6.0 hours (IP) [nM] (RET (658-1114))	Emax (RET (658-1114); [6]) [%]	DC50 (RET (658-1114); [7]) [nM]	HiBiT-Degradation 293T.165 RET(KD: 658-1114 G810R) 6.0 hours (IP) [nM] (RET(KD: 658-1114 G810R); RET G810R)	DC50 (RET(KD: 658-1114 G810R); [8]) [nM]	Emax (RET(KD: 658-1114 G810R); [9]) [%]	HiBiT-Degradation 293T.144 RET (658-1114) 6.0 hours (IP) [nM] (RET (658-1114); RET wild-type)	DC50 (RET (658-1114); [10]) [nM]	Emax (RET (658-1114); [11]) [%]	SMILES
< 50	< 100	+++ (<50% = +++)	++++ (< 50 nM = ++++)	< 100	++++ (< 50 nM = ++++)	< 50	< 30	–	–	–	–	–	–	–	–	–	–	N#Cc1cnn2cc(-c3cnn(C4CCN(C(=O)CN5CCC(c6ccc(NC7CCC(=O)NC7=O)cc6F)CC5)CC4)c3)nc(-c3ccc(N4CCN(C(=O)Cc5ccc(F)cn5)CC4)nc3)c12 (stereo not shown) [Compound 51, 6-[1-[1-[2-[4-[4-[(2,6-dioxo-3-piperidyl)amino]-2-fluoro-phenyl]-1-piperidyl]acetyl]-4-piperidyl]pyrazol-4-yl]-4-[6-[4-[2-(5-fluoro-2-pyridyl)acetyl]piperazin-1-yl]-3-pyridyl]pyrazolo[1,5-a]pyrazine-3-carbonitrile]
< 30	< 100	–	–	–	–	–	–	–	–	–	–	++++ (< 50 nM = ++++)	< 100	< 30	++++ (< 50 nM = ++++)	< 50	< 30	CCC1(C(=O)NC(C)C)CCN(c2ccc(-c3nc(-c4cnn(CC5CCN(C(=O)CC6(O)CCN(c7ccc(NC8CCC(=O)NC8=O)cc7F)CC6)CC5)c4)cn4ncc(C#N)c34)cn2)CC1 (stereo not shown) [Compound 84, 1-[5-[3-cyano-6-[1-[[1-[2-[1-[4-[(2,6-dioxo-3-piperidyl)amino]-2-fluoro-phenyl]-4-hydroxy-4-piperidyl]acetyl]-4-piperidyl]methyl]pyrazol-4-yl]pyrazolo[1,5-a]pyrazin-4-yl]-2-pyridyl]-4-ethyl-N-isopropyl-piperidine-4-carboxamide]
< 50	< 100	–	–	–	–	–	–	–	–	–	–	++++ (< 50 nM = ++++)	< 100	< 50	++++ (< 50 nM = ++++)	< 50	< 30	CCC1(C(=O)NC(C)C)CCN(c2ccc(-c3nc(-c4cnn(C5CCN(C(=O)CC6(O)CCN(c7ccc(NC8CCC(=O)NC8=O)c(F)c7)CC6)CC5)c4)cn4ncc(C#N)c34)cn2)CC1 (stereo not shown) [Compound 69, 1-[5-[3-cyano-6-[1-[1-[2-[1-[4-[(2,6-dioxo-3-piperidyl)amino]-3-fluoro-phenyl]-4-hydroxy-4-piperidyl]acetyl]-4-piperidyl]pyrazol-4-yl]pyrazolo[1,5-a]pyrazin-4-yl]-2-pyridyl]-4-ethyl-N-isopropyl-piperidine-4-carboxamide]
< 30	< 50	++++ (< 30% = ++++)	++++ (< 50 nM = ++++)	< 50	++++ (< 50 nM = ++++)	< 50	< 30	–	–	–	–	–	–	–	–	–	–	N#Cc1cnn2cc(-c3ccc(N4CCN(C(=O)CN5CCC(c6ccc(NC7CCC(=O)NC7=O)cc6)CC5)CC4)cc3)cc(-c3ccc(N4CC5CC5C4)nc3)c12 (stereo not shown) [Compound 17, 4-[6-(3-azabicyclo[3.1.0]hexan-3-yl)-3-pyridyl]-6-[4-[4-[2-[4-[4-[(2,6-dioxo-3-piperidyl)amino]phenyl]-1-piperidyl]acetyl]piperazin-1-yl]phenyl]pyrazolo[1,5-a]pyridine-3-carbonitrile]
< 30	< 50	–	–	–	–	–	–	++++ (<50 nM = ++++)	++++ (<50 nM = ++++)	< 30	< 50	–	–	–	–	–	–	CCC1(C(=O)NC2CCC2)CCN(c2ccc(-c3nc(-c4cnn([C@H]5CC[C@H](N6CCC(c7ccc(N[C@@H]8CCC(=O)NC8=O)cc7)CC6)CC5)c4)cn4ncc(C#N)c34)cn2)CC1 (single isomer, unassigned) [Compound 128]
